Series [1] can be described thus: Plasma half-life after oral administration in four dog breeds (Study 2). The class given is in vivo. The note with it: both sexes, 2 mg/kg. The procedure:
Four different sized-breeds from four different private breeders were tested (ten individuals were used from each breed): Anglo-French Hounds, Pointers, Cavalier King Charles Spaniels and Bernese Mountain Dogs. The bodyweights of the dogs ranged between [27.2, 37.4], [16.8, 22.3], [7, 9.8], [44.5, 62.5] kg; the ages were [0.6, 2.5], [1.9, 11.8], [1.7, 6.7], [1.4, 6.4] years for the Anglo-French Hounds, Pointers, Cavalier King Charles Spaniels and Bernese Mountain Dogs breeds, respectively. The sex ratios (male/female) were 5/5, 6/4, 4/6 and 4/6 for these same breeds. Prior to the experiment, all the animals underwent a clinical examination by a veterinarian, along with a complete biochemistry profile. No clinically important abnormality was noted during these examinations.
The half-life of elimination of cimicoxib was studied in four different sized breeds (40 dogs). Two mg/kg of cimicoxib was administered orally, in the form of 10 and 20 mg (hard gelatin capsules, Vetoquinol). For each dog, four blood samples (5 mL, heparinized tubes) were taken, at 6 h, 8 h, 10 h and 24 h after administration of cimicoxib, centrifuged (3000 G) and stored (- 20°C).
(§1) Plasma samples were analyzed by a High Performance Liquid Chromatography (HPLC) method using ultraviolet (UV) detection. Briefly, an internal standard (UR-8877) and cimicoxib (UR-8880) were extracted from plasma by a solid liquid (methanol) extraction process using HLB Oasis cartridges (Waters). The extraction yield was about 90%. The HPLC apparatus consists of a pump system equipped with an automatic injector and an UV detector (242 nm). […] The mobile phase was a mixture of 0.65 L of ultra-pure water and 0.35 L of acetonitrile which was delivered at a flow rate of 1 mL per min. Under these conditions, cimicoxib (UR-8880) and the internal standard (UR-8877) were eluted at retention times of 6 to 7 min and 10 to 11 min, respectively. The method was linear over the calibration range of 0.01 to 5 μg/mL using a linear model weighted by 1/X^2. Within-day and day-to-day coefficients of variation were less than 9% and the accuracy ranged from 94 to 103%, indicating an appropriate precision and accuracy for the analytical method. The lack of interference from endogenous compounds was verified on blank plasma from untreated dogs, establishing the specificity of the method. The validated limit of quantification was 0.01 μg/mL.
Half-life was estimated by log-linear regression (estimating the slope) using the non-compartmental approach implemented in Winnonlin.

The nature of series [2]: Plasma pharmacokinetics after single intravenous administration in beagle dogs. The class given is in vivo, dog. The note with it: mean ± SD; for HL (plasma half-life): IV 2 mg/kg; for AUC / clearance / half-life / Vd: beagle, dog, plasma, iv, 2 mg/kg; for clearance: read-out: CL (plasma clearance) (converted); for half-life: read-out: HL (plasma half-life) (converted); for Vd: read-out: V (volume of distribution). Here is the method: To verify this hypothesis, a PK investigation of cimicoxib following IV administration (bolus, 2 mg/kg) was performed on the 12 dogs at least 2 months after the completion of the PK/PD study. Blood samples were obtained from the jugular vein by direct puncture at time 0 (control just before the IV administration) and then 2, 15, 30, 60, 90 min. and 2, 3, 4, 6, 9, 12, 24, 30 and 48 hours after the test article administration.
as §1
For the IV study, a non-compartmental analysis was used to determined PK parameters.

Where two headings read alike, the source gives them in different places.

For the compound `COc1ccc(-c2c(Cl)ncn2-c2ccc(S(N)(=O)=O)cc2)cc1F` [cimicoxib], the half-life (usually how long it takes for the measured level to halve) was 4 h in series [1] (Anglo-French hound, po, oral 2 mg/kg, Anglo-French hounds (n = 10), read-out: plasma half-life, Maximum (converted)); 3.2 h in series [1] (Anglo-French hound, po, oral 2 mg/kg, Anglo-French hounds (n = 10), read-out: plasma half-life, Mean (converted)); 2 h in series [1] (Anglo-French hound, po, oral 2 mg/kg, Anglo-French hounds (n = 10), read-out: plasma half-life, Minimum (converted)); 5.8 h in series [1] (Bernese mountain dog, po, oral 2 mg/kg, Bernese mountain dogs (n = 10), read-out: plasma half-life, Maximum (converted)); 4.4 h in series [1] (Bernese mountain dog, po, oral 2 mg/kg, Bernese mountain dogs (n = 10), read-out: plasma half-life, Mean (converted)); 3.2 h in series [1] (Bernese mountain dog, po, oral 2 mg/kg, Bernese mountain dogs (n = 10), read-out: plasma half-life, Minimum (converted)). In addition, the half-life is 3.5 h in series [1] (Cavalier King Charles spaniel, po, oral 2 mg/kg, Cavalier King Charles spaniels (n = 10), read-out: plasma half-life, Maximum (converted)); 2.7 h in series [1] (Cavalier King Charles spaniel, po, oral 2 mg/kg, Cavalier King Charles spaniels (n = 10), read-out: plasma half-life, Mean (converted)); 1.9 h in series [1] (Cavalier King Charles spaniel, po, oral 2 mg/kg, Cavalier King Charles spaniels (n = 10), read-out: plasma half-life, Minimum (converted)); 5.9 h in series [1] (Pointer, po, oral 2 mg/kg, Pointers (n = 10), read-out: plasma half-life, Maximum (converted)); 3.9 h in series [1] (Pointer, po, oral 2 mg/kg, Pointers (n = 10), read-out: plasma half-life, Mean (converted)); 2.5 h in series [1] (Pointer, po, oral 2 mg/kg, Pointers (n = 10), read-out: plasma half-life, Minimum (converted)). In addition, the half-life in series [1] (oral, the 40 dogs of four breeds, as summarised in Discussion, read-out: terminal half-life) is 2 to 4 h; in series [2] (Extensive metabolizers (n = 8)), 2.7 ± 0.9 h; in series [2] (Poor metabolizers (n = 4)) it was 5.6 ± 1.7 h. Also, the “HL (plasma half-life)” value in series [2] (Extensive metabolizers (n = 8)) was found to be 2.72 ± 0.858 h; in series [2] (Poor metabolizers (n = 4)) it was 5.63 ± 0.727 h. In addition, the AUC – broadly, the area under the concentration-time curve, a measure of exposure – in series [2] (Extensive metabolizers (n = 8)) worked out at 7200 ± 1810 ng·h/mL; in series [2] (Poor metabolizers (n = 4)) it was 19200 ± 3150 ng·h/mL. Further, the figures for the clearance in series [2] (Extensive metabolizers (n = 8)) and in series [2] (Poor metabolizers (n = 4)) were 5.17 mL/min/kg and 1.83 mL/min/kg, respectively. For the same compound, the Vd in series [2] (Extensive metabolizers (n = 8)) was 1.12 ± 0.203 L/kg; in series [2] (Poor metabolizers (n = 4)) it was 0.89 ± 0.133 L/kg.

The values above are taken from publication PMC3892053, “Pharmacokinetic/pharmacodynamic modeling for the determination of a cimicoxib dosing regimen in the dog” (BMC Veterinary Research, 2013).
